Measurements: article PMC6943536, “Free and Bound Phenolics of Buckwheat Varieties: HPLC Characterization, Antioxidant Activity, and Inhibitory Potency towards α-Glucosidase with Molecular Docking Analysis” (Antioxidants, 2019)
Values after ≈ are worked out from the molar mass of the structure shown.

Molecular target: T1, α-glucosidase
T1 construct: gene MAL12; PDB 3A4A isomaltase is only a docking homologue
Experiment: pNPG hydrolysis, absorbance […] nm
Type: biochemical, Saccharomyces cerevisiae
Conditions: 5 mM p-NPG stock (100 µL of 250 µL), 0.1 M phosphate buffer pH 6.8, 37 °C, 10 min preincubation

IC50	Compound
447.50 ± 17.27 µg/mL (≈ 753 µM)	C[C@@H]1O[C@@H](OC[C@H]2O[C@@H](Oc3c(-c4ccc(O)cc4)oc4cc(O)cc(O)c4c3=O)[C@H](O)[C@@H](O)[C@@H]2O)[C@H](O)[C@H](O)[C@H]1O [kaempferol-3-O-rutinoside]
114.45 ± 0.31 µg/mL (≈ 357 µM)	O=C1c2c(O)cc(O)cc2O[C@H](c2cc(O)c(O)c(O)c2)[C@H]1O [dihydromyricetin]
